From PMC2758355 (Chemical research in toxicology, 2009)
“Also recorded” adds a separate entry of the source.

Columns and labels:
ER = settings: cited from earlier work
ERα [1] = target: T1, ERα (Homo sapiens, UniProt P03372); assay: Competition binding with [3H]estradiol in MCF-7 cells; settings: for activity in in vitro assays (result in words): binding and transactivation assays, experimental testing; for Ki: competition with radioactive-labeled estradiol
T1 sequence (P03372 1-595): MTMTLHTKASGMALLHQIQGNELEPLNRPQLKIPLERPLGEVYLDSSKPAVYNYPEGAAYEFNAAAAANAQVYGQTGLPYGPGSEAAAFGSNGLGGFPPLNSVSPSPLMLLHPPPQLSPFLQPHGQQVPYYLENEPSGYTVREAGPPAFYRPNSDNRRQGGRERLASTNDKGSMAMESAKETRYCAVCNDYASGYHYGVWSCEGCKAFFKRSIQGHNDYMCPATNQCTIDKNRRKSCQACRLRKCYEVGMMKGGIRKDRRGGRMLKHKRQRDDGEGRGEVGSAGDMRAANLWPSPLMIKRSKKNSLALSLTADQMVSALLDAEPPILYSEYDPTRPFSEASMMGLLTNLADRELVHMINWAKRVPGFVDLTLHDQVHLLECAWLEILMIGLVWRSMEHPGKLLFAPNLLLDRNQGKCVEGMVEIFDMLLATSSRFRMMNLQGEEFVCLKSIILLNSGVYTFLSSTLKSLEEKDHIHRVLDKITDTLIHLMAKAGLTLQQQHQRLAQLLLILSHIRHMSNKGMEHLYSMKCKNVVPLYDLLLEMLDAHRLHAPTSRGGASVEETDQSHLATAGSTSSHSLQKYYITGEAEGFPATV

[2] = established by JECFA; ref www.fao.org/ag/agn/jecfa-additives; cited from earlier work
ERα [3] = target: T1, ERα; settings: cited from earlier work

activity in in vitro assays (result in words) (ERα [1])	SMILES	binding to ER (result in words) (ER)	also measured
–	CCCCOC(=O)c1ccc(O)cc1 [butyl p-hydroxybenzoate]	known to bind to ER; also recorded: weak binders	–
–	COc1cc(/C=C/C(=O)CC(=O)/C=C/c2ccc(O)c(OC)c2)ccc1O [curcumin]	–	binding to the receptor in the competition assay (result in words) (ERα [1]; competitor 1 nM to 0.25 μM): lack binding activity
–	CC(Cc1ccc(O)c(O)c1)C(C)Cc1ccc(O)c(O)c1 (centres unmarked) [nordihydroguaiaretic acid]	known to bind to ER; also recorded: nanomolar binding affinity/potency	–
only the propyl gallate resulted active	CCCCCCCCOC(=O)c1cc(O)c(O)c(O)c1 [octyl gallate]	–	–
active	CCCOC(=O)c1cc(O)c(O)c(O)c1 [propyl gallate]	–	acceptable daily intake [2]: 0−1.4 mg/kg; Ki (ERα [1]; binding constant, Figure 4a): 54 nM; Ki (ERα [1]; pKi): 40.7 nM; transactivation activity (result in words) (ERα [3]): high micromolar range
–	CCCOC(=O)c1ccc(O)cc1 [propyl p-hydroxybenzoate]	known to bind to ER	–

SMILES	activity in in vitro assays (result in words) (ERα [1])	binding to ER (result in words) (ER)	also measured
COc1cc(CNC(=O)CCCC/C=C/C(C)C)ccc1O [capsaicin]	inactive	–	–
